The values that follow come from PubChem BioAssay AID330 (DTP/NCI, 2004).

Where “and” joins values, the source holds several entries; their conditions need not be identical. Equal entries are not always repeated. Toxic doses and inconclusive results are not listed.

For this test, the system named is P388 leukemia ip, CD2F1 mice, survival T/C. Description: NCI In Vivo Anticancer Drug Screen. Data for tumor model P388 Leukemia (intraperitoneal) in CD2F1 (CDF1) mice. Conditions: endpoint: median survival time, higher = longer survival. In short, it runs like this: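 Mice carrying the transplanted tumor received test compound or vehicle. Survival was recorded in each group, and the value is the treated-group measurement divided by that of the vehicle-treated control group.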

Setting [1] is: dose: 12.5 mg/kg/injection, schedule: Q01DX009 (ip), vehicle: saline.
The mark [2] stands for this setting: dose: 25.0 mg/kg/injection, schedule: Q01DX009 (ip), vehicle: saline.
The mark [3] stands for this setting: dose: 50.0 mg/kg/injection, schedule: Q01DX009 (ip), vehicle: saline.
[4] abbreviates: dose: 15.0 mg/kg/injection, schedule: Q01DX005 (ip), vehicle: saline.
[5] abbreviates: dose: 12.5 mg/kg/injection, schedule: Q01DX005 (ip), vehicle: Klucel (hydroxypropylcellulose) (HPC).
The mark [6] stands for this setting: dose: 25.0 mg/kg/injection, schedule: Q01DX005 (ip), vehicle: Klucel (hydroxypropylcellulose) (HPC).
[7] abbreviates: dose: 100.0 mg/kg/injection, schedule: Q01DX009 (ip), vehicle: Klucel (hydroxypropylcellulose) (HPC).
Setting [8] is: dose: 200.0 mg/kg/injection, schedule: Q01DX009 (ip), vehicle: Klucel (hydroxypropylcellulose) (HPC).
Setting [9] is: dose: 60.0 mg/kg/injection, schedule: Q01DX005 (ip), vehicle: saline with Tween-80.
[10] abbreviates: dose: 120.0 mg/kg/injection, schedule: Q01DX005 (ip), vehicle: saline with Tween-80.
Setting [11] is: dose: 240.0 mg/kg/injection, schedule: Q01DX005 (ip), vehicle: saline with Tween-80.
[12] abbreviates: dose: 6.25 mg/kg/injection, schedule: Q01DX005 (ip), vehicle: Klucel (hydroxypropylcellulose) (HPC).

For the molecule `CC(=O)Nc1ccc(N=Nc2c(C)nn(C(=N)N)c2C)cc1`, the T/C reads like this: (dose: 6.25 mg/kg/injection, schedule: Q01DX009 (ip), vehicle: saline) 100 % of control and 103 % of control; under setting [1], 108 % of control and 109 % of control and 93 % of control; under setting [2], 114 % of control; under setting [3], 123 % of control; (dose: 50.0 mg/kg/injection, schedule: Q04DX003 (ip), vehicle: saline) 98 % of control; (dose: 100.0 mg/kg/injection, schedule: Q04DX003 (ip), vehicle: saline) 110 % of control. For the same molecule, the T/C (dose: 200.0 mg/kg/injection, schedule: Q04DX003 (ip), vehicle: saline) was 122 % of control and the T/C (dose: 300.0 mg/kg/injection, schedule: Q04DX003 (ip), vehicle: saline) was 121 % of control.

For `[Cl][Pd][Cl].[NH-]C1CCCC2CCC[N-]C12` (centres undefined), the T/C was 104 % of control (dose: 12.5 mg/kg/injection, schedule: Q04DX002 (ip), vehicle: saline with Tween-80); 110 % of control (dose: 25.0 mg/kg/injection, schedule: Q04DX002 (ip), vehicle: saline with Tween-80); 104 % of control (dose: 50.0 mg/kg/injection, schedule: Q04DX002 (ip), vehicle: saline with Tween-80).

Turning to `CC(=O)OC1Cc2c(cc3c4c(cccc24)N(C(C)=O)C3)N(C)C1` (centres undefined), the T/C by setting is: (dose: 100.0 mg/kg/injection, schedule: Q04DX002 (ip), vehicle: saline with Tween-80) 105 % of control; (dose: 200.0 mg/kg/injection, schedule: Q04DX002 (ip), vehicle: saline with Tween-80) 108 % of control; (dose: 400.0 mg/kg/injection, schedule: Q04DX002 (ip), vehicle: saline with Tween-80) 100 % of control.

In the case of `NC(Cc1ccccc1)C(=O)Nc1cccnc1` (centres undefined), the T/C is 98 % of control under setting [4]; 102 % of control (dose: 30.0 mg/kg/injection, schedule: Q01DX005 (ip), vehicle: saline); 102 % of control and 105 % of control (dose: 60.0 mg/kg/injection, schedule: Q01DX005 (ip), vehicle: saline).

Regarding `CC(C)(C)C(=N)N`, the T/C under setting [1] is 100 % of control, the T/C under setting [2] was 108 % of control and the T/C under setting [3] was 102 % of control.

In the case of `O=C(Nc1ccc(C(=O)O)cc1)Nc1nccs1`, the T/C was 89 % of control (dose: 12.5 mg/kg/injection, schedule: Q01DX009 (ip), vehicle: distilled water + Tween-80); 118 % of control (dose: 25.0 mg/kg/injection, schedule: Q01DX009 (ip), vehicle: distilled water + Tween-80); 122 % of control (dose: 50.0 mg/kg/injection, schedule: Q01DX009 (ip), vehicle: distilled water + Tween-80); 150 % of control (dose: 100.0 mg/kg/injection, schedule: Q01DX009 (ip), vehicle: distilled water + Tween-80); 163 % of control (dose: 200.0 mg/kg/injection, schedule: Q01DX009 (ip), vehicle: distilled water + Tween-80).

Regarding `CCCCCCCCCCCCCCN=Cc1c(O)c(O)c(C(C)C)c2cc(C)c(-c3c(C)cc4c(C(C)C)c(O)c(O)c(C=NCCCCCCCCCCCCCC)c4c3O)c(O)c12`, the T/C under setting [5] is 98 % of control; the T/C under setting [6] is 90 % of control; the T/C (dose: 50.0 mg/kg/injection, schedule: Q01DX005 (ip), vehicle: Klucel (hydroxypropylcellulose) (HPC)) was 98 % of control; the T/C (dose: 100.0 mg/kg/injection, schedule: Q01DX005 (ip), vehicle: Klucel (hydroxypropylcellulose) (HPC)) was 95 % of control.

With `CC(C)OC(=O)Nc1ccc2nc(-c3cscn3)[nH]c2c1`, the T/C was 110 % of control (dose: 50.0 mg/kg/injection, schedule: Q01DX005 (ip), vehicle: saline with Tween-80); 114 % of control and 121 % of control (dose: 100.0 mg/kg/injection, schedule: Q01DX005 (ip), vehicle: saline with Tween-80); 151 % of control (dose: 200.0 mg/kg/injection, schedule: Q01DX005 (ip), vehicle: saline with Tween-80); 180 % of control (dose: 400.0 mg/kg/injection, schedule: Q01DX005 (ip), vehicle: saline with Tween-80).

For `CCN(CC)Cc1cc(Nc2c3ccc([N+](=O)[O-])cc3nc3ccc(OC)cc23)ccc1O`, the T/C (dose: 50.0 mg/kg/injection, schedule: Q01DX005 (ip), vehicle: saline) was 99 % of control; the T/C (dose: 100.0 mg/kg/injection, schedule: Q01DX005 (ip), vehicle: saline) is 103 % of control; the T/C (dose: 200.0 mg/kg/injection, schedule: Q01DX005 (ip), vehicle: saline) is 101 % of control.

Turning to `CC(=NCc1ccccc1)/C(=N\O)C(=O)Nc1ccc(Cl)cc1`, the T/C (dose: 400.0 mg/kg/injection, schedule: Q04DX003 (ip), vehicle: saline with Tween-80) was 96 % of control.

In the case of `Cc1ccc(Cc2ccc[nH]2)cc1`, the T/C runs as follows: (dose: 100.0 mg/kg/injection, schedule: Q04DX002 (ip), vehicle: distilled water + Tween-80 + alcohol) 100 % of control; (dose: 200.0 mg/kg/injection, schedule: Q04DX002 (ip), vehicle: distilled water + Tween-80 + alcohol) 100 % of control; (dose: 400.0 mg/kg/injection, schedule: Q04DX002 (ip), vehicle: distilled water + Tween-80 + alcohol) 103 % of control.

With `[O-][N+]1=C(/C=C/C=C/c2ccccc2)CCC1`, the T/C (dose: 50.0 mg/kg/injection, schedule: Q01DX009 (ip), vehicle: other) was 95 % of control; the T/C (dose: 100.0 mg/kg/injection, schedule: Q01DX009 (ip), vehicle: other) is 107 % of control; the T/C (dose: 200.0 mg/kg/injection, schedule: Q01DX009 (ip), vehicle: other) was 118 % of control.

Regarding `CCOC(=O)/C(=C/c1ccco1)C(C)=O`, the T/C was 102 % of control under setting [7] and 110 % of control under setting [8].

`CCCCC1(C2c3ccccc3Oc3ccccc32)C(=O)N(c2ccccc2)N(c2ccccc2)C1=O`: the T/C was 98 % of control under setting [9], 93 % of control under setting [10] and 90 % of control under setting [11].

With `O=[N+]([O-])c1ccc(-c2nc(/C=N/N3CCOCC3)cs2)s1`, the T/C is, setting by setting: (dose: 25.0 mg/kg/injection, schedule: Q01DX009 (ip), vehicle: saline with Tween-80) 110 % of control; (dose: 50.0 mg/kg/injection, schedule: Q01DX009 (ip), vehicle: saline with Tween-80) 115 % of control; (dose: 100.0 mg/kg/injection, schedule: Q01DX009 (ip), vehicle: saline with Tween-80) 114 % of control.

Turning to `C=C(C)C(=NC(C)C)Nc1ccccc1`, the T/C reads like this: under setting [12], 103 % of control and 104 % of control; under setting [5], 107 % of control and 123 % of control and 96 % of control; under setting [6], 99 % of control and 104 % of control and 106 % of control.

As for `COc1ccc2c(c1)CN1C(CCC3c4ccccc4NC31)C2` (centres undefined), the T/C is, setting by setting: under setting [9], 99 % of control; under setting [10], 95 % of control; under setting [11], 95 % of control.

As to `O=C1CSC(c2ccccc2Cl)N1c1nncs1` (centres undefined), the T/C was 103 % of control under setting [9], 98 % of control under setting [10] and 104 % of control under setting [11].

With `FC(F)(F)C(OCC1CO1)(c1cccc(C(OCC2CO2)(C(F)(F)F)C(F)(F)F)c1)C(F)(F)F` (centres undefined), the T/C (dose: 50.0 mg/kg/injection, schedule: Q01DX009 (ip), vehicle: Klucel (hydroxypropylcellulose) (HPC)) was 99 % of control; the T/C under setting [7] is 100 % of control; the T/C under setting [8] was 100 % of control.

For `C#CC(C)C(C(C)=O)C(C)=O.[C-]#[O+].[C-]#[O+].[C-]#[O+].[C-]#[O+].[C-]#[O+].[C-]#[O+].[Co].[Co]` (centres undefined), the T/C was 104 % of control (dose: 3.12 mg/kg/injection, schedule: Q01DX005 (ip), vehicle: Klucel (hydroxypropylcellulose) (HPC)); 94 % of control under setting [12]; 111 % of control under setting [5].

As to `OCCN(Cc1ccccn1)Cc1ccccn1`, the T/C was 99 % of control (dose: 7.5 mg/kg/injection, schedule: Q01DX005 (ip), vehicle: saline) and 106 % of control under setting [4].

Consider `O=C1CSC(c2cccc(Cl)c2)N1c1nncs1` (centres undefined), for which the T/C was 109 % of control under setting [9], 97 % of control under setting [10] and 98 % of control under setting [11].

Regarding `C/C=C(\C)c1cc(=O)c2c(C)cc3c(c2o1)C(=O)c1c(OC)cccc1C3=O`, the T/C is, setting by setting: (dose: 100.0 mg/kg/injection, schedule: Q01DX001 (ip), vehicle: saline with Tween-80) 96 % of control; (dose: 200.0 mg/kg/injection, schedule: Q01DX001 (ip), vehicle: saline with Tween-80) 93 % of control; (dose: 400.0 mg/kg/injection, schedule: Q01DX001 (ip), vehicle: saline with Tween-80) 89 % of control.
